Values of other authors, collected in patent US20070281911A1, “Use of Adefovir or Tenofovir for Inhibiting Mmtv-Like Viruses Involved in Breast Cancer and Primary Biliary Cirrhosis” (GILEAD SCIENCES INC., priority 2004, published 2007).

Biological target: MMTV RT enzyme (Mouse mammary tumor virus, UniProt P03365)
Sequence (P03365 861-1437): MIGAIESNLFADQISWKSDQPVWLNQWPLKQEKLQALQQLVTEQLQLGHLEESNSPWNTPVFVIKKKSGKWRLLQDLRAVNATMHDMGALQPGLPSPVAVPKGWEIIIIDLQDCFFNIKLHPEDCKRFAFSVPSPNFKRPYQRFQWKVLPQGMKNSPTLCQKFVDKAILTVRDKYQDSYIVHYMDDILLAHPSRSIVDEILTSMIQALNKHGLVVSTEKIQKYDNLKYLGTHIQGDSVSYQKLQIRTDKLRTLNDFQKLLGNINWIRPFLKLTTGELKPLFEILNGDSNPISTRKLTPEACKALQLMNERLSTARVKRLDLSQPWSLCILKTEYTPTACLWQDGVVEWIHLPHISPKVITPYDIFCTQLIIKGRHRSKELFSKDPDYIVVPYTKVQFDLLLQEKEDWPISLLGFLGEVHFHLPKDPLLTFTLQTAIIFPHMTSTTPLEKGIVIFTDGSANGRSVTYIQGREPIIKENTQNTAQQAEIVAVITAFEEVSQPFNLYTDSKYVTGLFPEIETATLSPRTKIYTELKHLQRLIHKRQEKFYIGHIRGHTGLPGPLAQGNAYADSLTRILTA

For Cc1cn([C@H]2C[C@H](N=[N+]=[N-])[C@@H](COP(=O)(O)OP(=O)(O)OP(=O)(O)O)O2)c(=O)[nH]c1=O [AZTppp], the “direct inhibition of MMTV RT enzyme compared with HIV RT enzyme” value is listed as “as efficiently as the HIV RT enzyme”.
